Measured values taken from patent publication US12280069B2, “Methods of using human milk oligosaccharides for improving airway respiratory health” (priority 2010, dated 2025).

What was measured:
interleukin 10 (IL-10) [1] = assay: IL-10 in peripheral blood mononuclear cells with or without RSV (Example 39); assay type: cell-based, human; conditions: in the presence or absence of RSV; FIGS. 7-10
Protocol: Specifically, either 3′SL or 6′SL is added, at concentrations of 0.1 mg/mL, 0.2 mg/mL, or 0.5 mg/mL to fresh peripheral blood mononuclear cells and incubated at 37° C. in 5% CO2 to pretreat the cells for approximately 24 hours. LNnT is added, at concentrations of 0.1 mg/mL, 0.2 mg/mL, or 1 mg/mL to fresh peripheral blood mononuclear cells and incubated at 37° C. in 5% CO2 to pretreat the cells for approximately 24 hours. Lactose is included as a carbohydrate control. Matched endotoxin unit concentration controls are included to allow differentiation of ingredient effects from inherent low levels of endotoxin. Some variables are then incubated with RSV at a multiplicity of infection (MOI) of 0.1 for approximately 1 hour at 37° C. in 5% in CO2. Uninfected control variables are incubated with medium for approximately 1 hour at 37° C. in 5% CO2. […]
Cytokines are measured in supernatants for each variable at 24 and 48 hours to assess the effects of HMOs on the early immune response to RSV. Cytokines are measured using custom Bio-Plex Human cytokine kits from Bio-Rad. […] A positive correlation exists between RSV clinical disease severity in children (as measured by: length of hospital stay, fever, and number of days supplemental O2 is required) and serum IP-10. […]

interleukin 10 (IL-10) [2] = assay: IL-10 in PBMCs in the presence or absence of RSV (Example 45); assay type: cell-based, human; conditions: in the presence or absence of RSV (MOI 0.1); for IL-10 response, Donor A and Donor E: 0.1-2.0 mg/mL, FIGS. 20A, 20B; for IL-10 response, Donor B and Donor E: FIGS. 19A, 19B
Protocol: Specifically, 3′SL and 6′SL are added individually at concentrations of 0.1 mg/mL, 0.2 mg/mL, or 0.5 mg/mL or in combination (Combo 1=1 part 3′SL to 1 part 6′SL; and Combo 2=1 part 3′SL to 2 parts 6′SL), at total concentrations of 0.2 mg/mL, 0.4 mg/mL, or 1.0 mg/mL to fresh PBMCs and incubated at 37° C. in 5% CO2 to pretreat the cells for approximately 24 hours. In a separate experiment, LNnT and 2′FL are added individually at concentrations of 0.1 mg/mL, 0.2 mg/mL, 1.0 mg/mL or 2.0 mg/mL to fresh PBMCs and incubated at 37° C. in 5% CO2 to pretreat the cells for approximately 24 hours. Lactose is included as a carbohydrate control. Matched endotoxin unit concentration controls are included to allow differentiation of ingredient effects from inherent low levels of endotoxin. After approximately 24 hours, some variables are then incubated with RSV at a multiplicity of infection (MOI) of 0.1 for approximately 1 hour at 37° C. in 5% in CO2. Uninfected control variables are incubated with medium for approximately 1 hour at 37° C. in 5% CO2. After approximately 1 hour, fresh medium alone or containing the appropriate concentrations of LNnT alone, 2′FL alone, 3′SL or 6′SL individually or in combination, lactose alone, or endotoxin alone is added to the appropriate variables, and the PBMCs were incubated for 48 hours at 37° C. in 5% CO2. Supernatants are collected at 24 and 48 hours post-infection. Cytokines are measured in supernatants for each variable at 24 and 48 hours to assess the effects of HMOs on the early immune response to RSV. Cytokines are measured using custom Bio-Plex Human cytokine kits from Bio-Rad.

[3] = tested on: H1N1 influenza A virus (IAV); assay: H1N1 influenza A virus replication (IAV M gene copy numbers) in 16HBE cells (Example 43); assay type: cell-based; conditions: 16HBE lung epithelial cells; MOI 0.01; FIG. 16
[4] = tested on: interferon-inducible protein 10 (IP-10); assay: IP-10 in RSV-infected peripheral blood mononuclear cells (Example 39); assay type: cell-based, human; conditions: for IP-10 level compared with uninfected controls / IP-10 in virus-infected variables: FIGS. 3-6; for IP-10 in virus-infected variables: both donors, 24 hour pretreatment, 0.1-0.5 mg/mL (LNnT 0.1-1 mg/mL); for reduction of inflammation caused by RSV: pretreatment for 24 hours, measured by decrease in IP-10
Protocol: (§1) Specifically, either 3′SL or 6′SL is added, at concentrations of 0.1 mg/mL, 0.2 mg/mL, or 0.5 mg/mL to fresh peripheral blood mononuclear cells and incubated at 37° C. in 5% CO2 to pretreat the cells for approximately 24 hours. LNnT is added, at concentrations of 0.1 mg/mL, 0.2 mg/mL, or 1 mg/mL to fresh peripheral blood mononuclear cells and incubated at 37° C. in 5% CO2 to pretreat the cells for approximately 24 hours. Lactose is included as a carbohydrate control. Matched endotoxin unit concentration controls are included to allow differentiation of ingredient effects from inherent low levels of endotoxin. Some variables are then incubated with RSV at a multiplicity of infection (MOI) of 0.1 for approximately 1 hour at 37° C. in 5% in CO2. Uninfected control variables are incubated with medium for approximately 1 hour at 37° C. in 5% CO2. After approximately one hour, fresh medium alone, or fresh medium containing the appropriate concentration of 3′SL, 6′SL, LNnT, lactose, or endotoxin is added to the appropriate tubes and the cells are incubated for 48 hours at 37° C. in 5% CO2. Supernatants are collected at 24 and 48 hours post-infection.
(§2) Cytokines are measured in supernatants for each variable at 24 and 48 hours to assess the effects of HMOs on the early immune response to RSV. Cytokines are measured using custom Bio-Plex Human cytokine kits from Bio-Rad. Results for interferon-inducible protein 10 (IP-10, also known as CXCL 10) are shown in FIGS. 3 and 4 for 3′SL and 6′SL, and in FIGS. 5 and 6 for LNnT. IP-10 is a CXC chemokine that attracts, binds to and activates the CXCR3 receptor on natural killer cells and memory T cells. IP-10 is expressed by monocytes and a number of other cells, and is induced by interferon. A positive correlation exists between RSV clinical disease severity in children (as measured by: length of hospital stay, fever, and number of days supplemental O2 is required) and serum IP-10. Therefore, a decrease in IP-10 signals a decrease in severity of RSV disease experienced.

[5] = tested on: respiratory syncytial virus (RSV); assay: RSV replication (RSV NS1 copy numbers) in 16HBE lung epithelial cells (Example 42); assay type: cell-based; conditions: RSV MOI 1, FIGS. 13-15
Protocol: Specifically, on Day −1, 16HBE cell monolayers are seeded in sufficient numbers to reach 95-100% confluence in 24 well places by Day 0. On day 0, either 2′FL (in concentrations of 1 μg/mL, 5 μg/mL, 10 μg/mL, 50 μg/mL, 100 μg/mL, 500 μg/mL, and 1000 μg/mL), LNnT (in concentrations of 10 μg/mL, 100 μg/mL, or 1000 μg/mL), or 3′SL (in concentrations of 5 μg/mL, 10 μg/mL, 50 μg/mL, 100 μg/mL, 500 μg/mL, and 1000 μg/mL) is added and incubated for approximately 24 hours at 37° C. in 5% CO2. On day 1, the cell supernatants are removed and the monolayers are incubated with medium alone or medium plus Respiratory Syncytial Virus (RSV) for approximately 1 hour at 37° C. in 5% CO2 at a multiplicity of infection (MOI) of 1. After approximately 1 hour, fresh medium alone or containing the appropriate concentrations of 2′FL 3′SL, or LNnT is added to the appropriate wells, and the cells are incubated for 48 hours at 37° C. in 5% CO2. On day 3, supernatants and cell lysates are collected separately, aliquotted and stored frozen at −70° C. for later analysis. Cell lysates are analyzed by TaqMan qRTPCR to assess viral replication through measurement of RSV NS1 copy numbers.

[6] = tested on: monocyte-derived cytokines; assay: Monocyte-derived cytokines in peripheral blood mononuclear cells (Example 39); assay type: cell-based, human
Protocol: as §1, §2

H1N1 influenza virus [7] = assay type: cell-based; conditions: at a concentration of 1 mg/mL
[8] = tested on: interferon-inducible protein 10 (IP-10); assay: IP-10 in RSV-infected PBMCs, 6′SL (Example 44); assay type: cell-based, human; conditions: 0.1 mg/mL to 1 mg/mL; RSV MOI 1.0; 4 donors; 48 hours; FIG. 18
Protocol: Specifically, 6′SL was added individually at concentrations of 0.1 mg/mL, 0.2 mg/mL, 0.5 mg/mL or 1.0 mg/mL to fresh peripheral blood mononuclear cells (PCMBs) and incubated at 37° C. in 5% CO2 to pretreat the cells for approximately 24 hours. After approximately 24 hours, some variables are then incubated with RSV at a multiplicity of infection (MOI) of 1.0 for approximately 1 hour at 37° C. in 5% in CO2. Uninfected control variables are incubated with medium for approximately 1 hour at 37° C. in 5% CO2. After approximately 1 hour, fresh medium alone or containing the appropriate concentrations of 6′SL is added to the appropriate variables, and the PBMCs are incubated for 48 hours at 37° C. in 5% CO2. Supernatants are collected at 48 hours post-infection. Cytokines are measured in supernatants for each variable at 48 hours to assess the effects of HMOs on the early immune response to RSV.
Interferon-inducible Protein 10 (IP-10, also known as CXCL10) is a CXC chemokine that attracts, binds to and activates the CXCR3 receptor on Natural Killer Cells and Memory T cells. IP-10 is expressed by monocytes and a number of other cells, and is induced by interferon. A positive correlation exists between RSV clinical disease severity in children (as measured by: length of hospital stay, fever, and number of days supplemental O2 was required) and serum IP-10. […]

[9] = tested on: H1N1 influenza A virus (IAV); assay: H1N1 influenza A virus replication (IAV M gene copy numbers) in Calu3 cells (Example 43); assay type: cell-based; conditions: Calu3 lung epithelial cells; MOI 0.01; FIG. 17
H1N1 influenza virus [10] = assay type: cell-based; conditions: 10 mg/mL; MDCK cells; FIG. 1
[11] = in the presence or absence of the virus

CC(=O)N[C@H]1[C@H](O[C@H]2[C@@H](O)[C@@H](CO)O[C@@H](O[C@H]3[C@H](O)[C@@H](O)C(O)O[C@@H]3CO)[C@@H]2O)O[C@H](CO)[C@@H](O[C@@H]2O[C@H](CO)[C@H](O)[C@H](O)[C@H]2O)[C@@H]1O (mixture of isomers) [LNnT, lacto-N-neotetraose]
IL-10 concentration (interleukin 10 (IL-10) [1]): increases IL-10 concentration in a dose-dependent manner
IL-10 response, Donor A and Donor E (interleukin 10 (IL-10) [2]): clear dose-dependent increase in IL-10 response
concentrations that decrease viral load or inhibit IAV replication (IAV M gene copies) [3]: ≥ 1 µg/mL
IP-10 level compared with uninfected controls ([4]; RSV MOI 0.1): reduce IP-10 to levels found in uninfected controls
IP-10 in virus-infected variables ([4]; RSV MOI 0.1): clearly downregulates IP-10
reduction of inflammation caused by RSV [4]: effective in reducing inflammation caused by RSV
concentrations that decrease viral load or inhibit RSV replication (RSV NS1 copies) [5]: ≥ 10 µg/mL
production of monocyte-derived cytokines (IL-10, MIP-1β, Interferon-γ, IL-8, IL-1α, IL-1β, IL-1ra) [6, 11]: immunomodulatory

CC(=O)N[C@H]1[C@H]([C@H](O)[C@H](O)CO)O[C@@](O[C@H]2[C@@H](O)[C@@H](CO)O[C@@H](O[C@H]3[C@H](O)[C@@H](O)C(O)O[C@@H]3CO)[C@@H]2O)(C(=O)O)C[C@@H]1O (stereo partly drawn) [3′SL, 3′-sialyllactose]
anti-viral activity against H1N1 influenza virus (H1N1 influenza virus [7]): inhibited
IL-10 response, Donor B and Donor E (interleukin 10 (IL-10) [2]): do not increase IL-10
RSV-induced IP-10, Donor B ([4]; RSV MOI 0.1, Donor B): not effective
RSV-induced IP-10, Donor E ([4]; RSV MOI 0.1, Donor E): downregulates RSV-induced IP-10
reduction of inflammation caused by RSV [4]: effective in reducing inflammation caused by RSV
production of monocyte-derived cytokines (MIP-1β, Interferon-γ, IL-8, IL-1ra) [6, 11]: immunomodulatory

CC(=O)N[C@H]1[C@H]([C@H](O)[C@H](O)CO)O[C@@](OC[C@H]2O[C@@H](O[C@H]3[C@H](O)[C@@H](O)[C@H](O)O[C@@H]3CO)[C@H](O)[C@@H](O)[C@H]2O)(C(=O)O)C[C@@H]1O [6′SL, 6′-sialyllactose]
IP-10 in RSV infected PBMCs [8]: dose-dependent downregulation of IP-10
concentrations that decrease viral load or inhibit IAV replication (IAV M gene copies) [9]: ≥ 10 µg/mL
IL-10 response, Donor B and Donor E (interleukin 10 (IL-10) [2]): clear dose-dependent increase in IL-10 response
inhibition of virus infectivity (H1N1 influenza virus [10]): approximately 60%
IP-10 level compared with uninfected controls ([4]; RSV MOI 0.1): reduce IP-10 to levels found in uninfected controls
IP-10 in virus-infected variables ([4]; RSV MOI 0.1): clearly downregulates IP-10
reduction of inflammation caused by RSV [4]: effective in reducing inflammation caused by RSV
production of monocyte-derived cytokines (IL-10, MIP-1β, Interferon-γ, IL-8, IL-1α, IL-1β, IL-1ra) ([6]; in the absence of the virus): immunomodulatory

OC[C@H]1O[C@@H](O[C@H]2[C@H](O)[C@@H](O)C(O)O[C@@H]2CO)[C@H](O)[C@@H](O)[C@H]1O (stereo partly drawn) [lactose, Lactose, reference compound]
IL-10 response, Donor A and Donor E (interleukin 10 (IL-10) [2]): do not increase IL-10
IL-10 response, Donor B and Donor E (interleukin 10 (IL-10) [2]): do not increase IL-10
